Consider 6 compounds from patent US4282111A (Betz Laboratories, Inc., priority 1980, dated 1981).

The nature of data set [1]: oxygen scavenging in stainless steel hot water flow system at elevated temperature and pressure (Example 1). To be noted: for % O2 Removed: 78±3°C, 4±1 psig, 4±0.2 min contact, feedwater: hydrazine 96 ppm pH 10.3 O2 1.8 ppm (average of 9 runs), hydroquinone 100 ppm pH 8.9 O2 2.3 ppm, p-phenylenediamine 69 ppm pH 10.9 O2 2.0 ppm, o-phenylenediamine 58 ppm pH 10.2 O2 2.0 ppm, resorcinol 90 ppm pH 9.8 O2 1.8 ppm, values below 20% may be artifacts; for oxygen scavenging in the test water (in words): conclusion from TABLE 1. As to the method: In a first series of tests, the oxygen scavenging efficacies of various materials were evaluated under conditions of elevated temperature and pressure. The test apparatus used was essentially a stainless steel hot water flow system equipped with appropriate monitoring instrumentation. Demineralized feedwater, adjusted to the appropriate pH and initial dissolved oxygen level (controlled by nitrogen sparging), was pumped from a reservoir at ambient temperature into a once-through heater. Temperature was monitored continuously by means of thermocouples at several locations along the length of the flow tubing. A solution containing the oxygen scavenger test material was loaded into a pump driven syringe and fed continuously to the heated flow stream through a port containing a stainless steel ribbon mixing baffle. The feedwater containing dissolved oxygen and the test material then traversed the flow tubing via a by-pass comprising an additional length of coiled tubing. Contact (or reaction) time of the test material and dissolved oxygen was governed by the choice of coil length. The tendency of the temperature to drop during residence in the coiled tubing was offset by the use of thermostatted heating tapes which maintained the temperature in this tubing at 78°±3°C. Upon exiting the coiled tubing, the stream flowed through a sample cooler to render the temperature of the liquid compatible with the operating range of a membrane-type dissolved oxygen probe. The cooled liquid was analyzed for dissolved oxygen via a D.O. flow cell, and pH was potentiometrically monitored in the flow tube immediately downstream of the D.O. probe. Outputs of the temperature, pH and dissolved oxygen probes during operation were monitored via strip chart recorders. The final destination of the reaction mixture was a reservoir which could be drained for analysis of reaction products, if desired.
Temperature in the system could be maintained at 78°±3° C. under 4±1 psig. Residence time of the feedwater in the flow tube from chemical feed point to D.O. flow cell outlet was 4±0.2 minutes. Approximately 3.5 minutes of this total was spent in a 40' length of 0.402 inch i.d. coiled tubing. Entry into and residence in the sample cooler accounted for 0.5 minute of the total contact time.
According to an article by J. W. Cohn and R. E. Powell, Jr., J. Amer.
The test solutions were prepared by initially mixing 10 grams of test material and 90 grams of demineralized water in glass bottles and allowing the mixture to remain in a shaker for several hours. If complete dissolution for a given material was observed after shaking, the pH of the solution was measured. When the pH of the solution was below 10.0, 7 N sodium hydroxide was added dropwise until this value was reached. The quantity of added sodium hydroxide was recorded and later used in corrections for the active concentration of the solution. When the pH value of a stock solution was above pH 10.0 without requiring the addition of caustic, the solution was not further modified.
Results of these tests are reported in TABLE 1 below in terms of percent oxygen removed from the test stream. The precision of the initial and final dissolved oxygen values reported is approximately ±10%. […] The experimental uncertainties decrease with increasing values of percent dissolved oxygen removal.

A short description of data set [2]: oxygen scavenging in feedwater of a working boiler (Example 2). As for the experimental part:
In order to compare the performance of hydroquinone with that of hydrazine under field-type conditions, a series of experiments were conducted on the feedwater of a working boiler. The test materials were fed to the deaerator storage tank, and the resultant change, if any, in dissolved oxygen level was measured on a sample flowing from the feedwater line through a membrane-type dissolved oxygen probe.
During the tests, a relatively wide range of experimental conditions was encountered among the test parameters, reflecting the difficulty of attempting to obtain precise data during experiments performed on a working boiler.
In order to provide some point of reference for judging oxygen scavenging efficacies while taking into account the diverse conditions experienced on a daily basis, hydrazine control runs were performed, whenever possible, under feedwater and boiler conditions similar to those encountered during testing of other test materials. The hydrazine control runs are reported below in TABLE 3 also in terms of % oxygen removal.

The conditions of data set [3]: for % O2 Removed, 1 Minute: hydroquinone: pH 8.6, 22.5 °C, 0.94 mol/mol O2, initial O2 7.7 ppm.
Description: The test apparatus basically consisted of a 1 liter three-necked flask fitted with a dissolved oxygen probe and a pH electrode. The intent of this apparatus was to show reaction kinetics differences rather than precise measurements (within seconds) of reaction times.
The flask was filled with deionized water which had been stripped of some dissolved oxygen by bubbling nitrogen through a diffuser stone. The pH was adjusted to the desired level with sodium hydroxide. The flask was sealed with a rubber septum, the dissolved oxygen probe and an inlet stopper. A magnetic stirrer bar was left in the flask for mixing. The mixer was turned on, and dissolved oxygen and temperature readings were recorded until the dissolved oxygen reached a constant value. Next, the appropriate quantity of additive was injected through the septum using a hypodermic syringe. The initial mole ratio of treatment to dissolved oxygen was determined by weighing feed chemical and measuring the oxygen concentration. […] Dissolved oxygen and temperature readings were then taken at appropriate time intervals.
The conditions of data set [4]: Cohn and Powell, J. Amer. Chem. Soc., 76, 2568 (1954); cited from earlier work.
For data set [5] the following is noted: background, cited from earlier work.
For data set [6] the following is noted: background; cited from earlier work.
For data set [7] the following is noted: low temperatures such as room temperature; background; cited from earlier work.
A short description of data set [8]: thermal decomposition of aqueous solutions in autoclaves (Example 5). To be noted: hydrazine 60 ppm, 435 psig, 450 °F, 4 hours.
Protocol: The aqueous solutions (approximately 50-60 ppm in demineralized water) were subjected to specified temperature and pressure conditions for 4 hours prior to chemical analysis.
The test system of another data set is test rats. The conditions noted are these: conclusion from TABLE 4; cited from earlier work.
Setting [9] is: hydrazine: pH 9.2, 26.5 °C, 10.5 mol/mol O2, initial O2 0.87 ppm.

With `NN` [hydrazine], the “% O2 Removed” value turned out to be 91 ± 4% in data set [1]; 69% in [2] (hydrazine control run 1: 1.6 ppm actives, pH 8.8, steam load 11 (1000 lbs./hr.), initial O2 13.0 ppb); 50% in data set [2] (hydrazine control run 2: 1.1 ppm actives, pH 9.4, steam load 15 (1000 lbs./hr.), initial O2 4.0 ppb); 60% in [2] (hydrazine control run 3: 1.2 ppm actives, pH 8.6, steam load 15 (1000 lbs./hr.), initial O2 6.0 ppb); 55% in data set [2] (hydrazine control run 4: 1.0 ppm actives, pH 8.8, steam load 15 (1000 lbs./hr.), initial O2 5.8 ppb); 31% in data set [2] (hydrazine control run 5: 0.8 ppm actives, pH 9.4, steam load 11 (1000 lbs./hr.), initial O2 3.5 ppb). Also, the “% O2 Removed” value in [2] (hydrazine control run 6: 1.6 ppm actives, pH 9.6, steam load 14 (1000 lbs./hr.), initial O2 4.0 ppb) came out at 30%. Also, the “% O2 Removed, 1 Minute” value in [3] (setting [9]) is 1%. Moreover, the “% O2 Removed, 5 Minutes” value in data set [3] (5 minutes, hydrazine: pH 9.2, 26.5 °C, 10.5 mol/mol O2, initial O2 0.87 ppm) came to 2%. Besides, the “pH of maximum oxygen scavenging efficacy in solution” value in data set [4] is on record as 10.0-10.5. The “temperature above which it decomposes” value in data set [5] (to nitrogen, hydrogen and ammonia) was “Above 400 °F”. The “toxicity (in words)” value in data set [6] was “extreme toxicity and carcinogenicity”. Moreover, the “rate of hydrazine-oxygen reaction (in words)” value in [7] is given as “very slow at low temperatures”. The “% Decomposition” value in [8] is reported as 20%.

With `Oc1ccc(O)cc1` [hydroquinone], the “% O2 Removed” value in [1] came to 97%; in data set [2] (1.9 ppm actives, pH 8.4, steam load 15 (1000 lbs./hr.), initial O2 8.0 ppb), 88%; in data set [2] (1.9 ppm actives, pH 8.4, steam load 15 (1000 lbs./hr.), initial O2 10.0 ppb) it was 90%. The “oxygen scavenging in the test water (in words)” value (shortened to “oxygen scavenging … (in words)”) in data set [1] is reported as “at least equivalent to, if not better than, hydrazine”. Moreover, the “efficacy in treating boiler feedwater (in words)” value in [2] (conclusion from TABLES 2 and 3) is on record as “compared favorably with hydrazine”. In [3] (setting [9]), the “% O2 Removed, 1 Minute” value is reported as 29%. Moreover, the “reactivity at low temperature with oxygen (in words)” value in data set [3] (conclusion from TABLE 5, compared to hydrazine) is “superiority of hydroquinone, as compared to hydrazine”. Besides, the “toxicity compared to hydrazine (in words)” value with test rats is recorded as “significantly less toxic as compared to hydrazine”.

Regarding `Nc1ccccc1N` [o-phenylenediamine], in [1], the “% O2 Removed” value stood at 10% and the “oxygen scavenging … (in words)” value is “did not work as oxygen scavengers”.

With `Nc1ccc(N)cc1` [p-phenylenediamine], in data set [1], the “% O2 Removed” value was determined as 35% and the “oxygen scavenging … (in words)” value is listed as “did not work as oxygen scavengers”.

As to `Oc1cccc(O)c1` [resorcinol], in data set [1], the “% O2 Removed” value is recorded as 0% and the “oxygen scavenging … (in words)” value is reported as “did not work as oxygen scavengers”.

Regarding `O=S([O-])[O-].[Na+].[Na+]` [sodium sulfite], the “decomposition in the boiler (in words)” value in data set [5] (at high pressures) was “decomposes in the boiler to form sulfur dioxide and hydrogen sulfide”.
